Data set [1] in a line: Clinical Study #2: plasma pharmacokinetics of dextromethorphan, dextrorphan and quinidine, single and multiple dose. Conditions: for AUC(0-t) / Cmax / Tmax: human, in vivo, mean; for AUC(0-t): AUC (0-12) (plasma); for Cmax: Cmax (plasma); for Tmax: Tmax (plasma). How it is done: Descriptive statistics for each parameter, including mean, median, standard deviation, coefficient of variation, N, minimum, and maximum were calculated for all of the subjects by Day. In addition, descriptive statistics were presented by the subgroups: extensive metabolizer (EM) and poor metabolizer (PM).
The ANOVA model included the factors group (EM or PM), subject within group, day, and the interaction term day by group. The group effect was tested using the subject within group mean square, and all other main effects were tested using the residual error (error mean square). In addition, tests of the hypotheses Day 1=Day 4, Day 1=Day 8, and Day 4=Day 8 were performed.

Data set [2] is described as follows: Clinical Study #5: concentrations in plasma of DM, DX and Q and correlation with pain intensity. Conditions: final visit; for Concentration in plasma, Mean / Concentration in plasma, Median: extensive metabolizers. Type of data set: in vivo, human. How it is done: Subjects visited the clinic every two weeks during the four-week duration of the study and were contacted by telephone during weeks without clinic visits. At each subsequent study visit or weekly phone call, the subjects were given the Pain Intensity Rating Scale and the Pain Relief Rating Scale and were queried regarding any adverse events that might have occurred since their previous visit. Subjects were administered the Peripheral Neuropathy Quality of Life (QOL) Instrument on Days 1 and 29 (or the final visit). Blood samples were taken at the visits on Day 15 and Day 29 to determine concentrations in plasma of DM, DX, and Q.

The format of data set [3] is in vivo. An excerpt:
An adverse event was any unfavorable and unintended sign (including an abnormal laboratory finding, for example), symptom, or disease temporally associated with the use of a medicinal product, whether or not considered related to the medicinal product. Changes associated with normal growth and development not varying in frequency or magnitude from that ordinarily anticipated clinically are not adverse events (for example, onset of menstruation occurring at a physiologically appropriate time). Clinical adverse events were described by diagnosis and not by symptoms when possible (for example, cold or seasonal allergies, instead of “runny nose”).
The severity of adverse events was graded on a 3-point scale and reported in detail as indicated on the Case Report Form: mild—easily tolerated, causing minimal discomfort, and not interfering with normal everyday activities; moderate—sufficiently discomforting to interfere with normal everyday activities; and severe—incapacitating and/or preventing normal everyday activities.
Subjects were instructed to promptly report any adverse event. The serious adverse event was assessed for the following details: seriousness of event, start date, stop date, intensity, frequency, relationship to test drug, action taken regarding test drug, treatment required, and outcome to date. These details were recorded on the Case Report Form. Such preliminary reports were followed by detailed descriptions that included copies of hospital case reports, autopsy reports, and other documents when requested and applicable.
Blood and urine were collected at the screening visit and Day 29 for clinical chemistry, hematology, urinalysis, and pregnancy testing. In the event of an abnormal laboratory test value, the test was repeated within one week, and the subject was followed up until the value returned to the normal range and/or until an adequate explanation of the abnormality was found.
Values were obtained for systolic and diastolic blood pressure, heart rate, and respiration rate on the screening visit and all other study visits. All values outside the pre-defined ranges were flagged in the subject data listings. Electrocardiography (twelve lead) was used to obtain ventricular rate (VR), QT, Q-Tc intervals, […] (PR), and QRS duration. A blood sample (10 mL whole blood) was taken from each subject at the Screening Visit for CYP2D6 genotyping to determine which subjects were poor metabolizers of DM and which were extensive metabolizers. Blood samples were taken on Day 29 for the determination of concentrations of DM, DX, and Q in plasma. The relationship between the concentration of drug in plasma and changes in CNS-LS scores was determined, and the effect of the CYP2D6 genotype on this relationship was evaluated.

The mark [4] stands for this setting: Day 1, All Subjects, 30 mg DM HBr/25 mg Q sulfate capsule every 12 hours.
Setting [5] is: Day 1, EM, 30 mg DM HBr/25 mg Q sulfate capsule every 12 hours.
Setting [6] is: Day 1, PM, 30 mg DM HBr/25 mg Q sulfate capsule every 12 hours.
Setting [7] is: Day 4, All Subjects, 30 mg DM HBr/25 mg Q sulfate capsule every 12 hours.
The mark [8] stands for this setting: Day 4, EM, 30 mg DM HBr/25 mg Q sulfate capsule every 12 hours.
Setting [9] is: Day 4, PM, 30 mg DM HBr/25 mg Q sulfate capsule every 12 hours.
Setting [10] is: Day 8, All Subjects, 30 mg DM HBr/25 mg Q sulfate capsule every 12 hours.
Where [11] appears, read: Day 8, EM, 30 mg DM HBr/25 mg Q sulfate capsule every 12 hours.
Where [12] appears, read: Day 8, PM, 30 mg DM HBr/25 mg Q sulfate capsule every 12 hours.

The results in this text go back to patent US20130072517A1 (Avanir Pharmaceuticals, Inc., priority 2002, published 2013).

Molecules are shown by their SMILES.

`CN1CC[C@@]23CCCC[C@@H]2[C@@H]1Cc1ccc(O)cc13` [Dextrorphan, dextrorphan]: the exposure AUC(0-t) worked out at 749 ng·h/mL in data set [1] (setting [4]); 934 ng·h/mL in data set [1] (setting [5]); 91 ng·h/mL in data set [1] (setting [6]); 742 ng·h/mL in data set [1] (setting [7]); 849 ng·h/mL in data set [1] (setting [8]); 365 ng·h/mL in data set [1] (setting [9]). For the same molecule, the values for the AUC(0-t) in data set [1] (setting [10]), in data set [1] (setting [11]) and in data set [1] (setting [12]) were 896 ng·h/mL, 1000 ng·h/mL and 530 ng·h/mL, respectively. Moreover, the Cmax in data set [1] (setting [4]) was 99.5 ng/mL; in data set [1] (setting [5]) it was 125 ng/mL; in data set [1] (setting [6]), 10.8 ng/mL; in data set [1] (setting [7]) it was 69.9 ng/mL; in data set [1] (setting [8]), 79.3 ng/mL; in data set [1] (setting [9]), 37 ng/mL. The results for the Cmax in data set [1] (setting [10]), in data set [1] (setting [11]) and in data set [1] (setting [12]) were 108 ng/mL, 124 ng/mL and 51.5 ng/mL, respectively. Moreover, the Tmax in data set [1] (setting [4]) stood at 3.78 h; in data set [1] (setting [5]), 4 h; in data set [1] (setting [6]), 3 h; in data set [1] (setting [7]), 2.17 h; in data set [1] (setting [8]), 2.21 h; in data set [1] (setting [9]), 2 h. Further, the Tmax in data set [1] (setting [10]) came to 32.7 h; in data set [1] (setting [11]) it was 41.2 h; in data set [1] (setting [12]), 2.99 h. The “Fold increase in AUC (0-12) from Day 1 to Day 8” value in data set [1] (poor metabolizers) came to 4.8 fold. Also, the “Concentration in plasma, Mean” value in data set [2] (DM/Q MTD 30 mg) stood at 70.7 ng/mL; in data set [2] (DM/Q MTD 60 mg), 65.4 ng/mL; in data set [2] (DM/Q MTD 90 mg), 88.4 ng/mL; in data set [2] (DM/Q MTD 120 mg), 146.6 ng/mL; in data set [2] (Total, all MTDs) it was 123.9 ng/mL. The “Concentration in plasma, Median” value was determined as 94.6 ng/mL in data set [2] (DM/Q MTD 30 mg); 58.2 ng/mL in data set [2] (DM/Q MTD 60 mg); 88.4 ng/mL in data set [2] (DM/Q MTD 90 mg); 122.6 ng/mL in data set [2] (DM/Q MTD 120 mg); 102.6 ng/mL in data set [2] (Total, all MTDs). This molecule displayed a Concentration in plasma in data set [2] (poor metabolizer (MTD of 60 mg)) of 41.0 ng/mL.
As for `C=C[C@H]1C[N@@]2CC[C@H]1C[C@@H]2[C@@H](O)c1ccnc2ccc(OC)cc12` [Quinidine, quinidine], in data set [1], the Tmax stood at 1.71 h. In data set [3] (28 days, twice daily), the Subjects with dizziness amounted to 2.7%, the Subjects with nausea turned out to be 8.1% and the Subjects with somnolence worked out at 0%. Moreover, the “Subjects who withdrew because of adverse events” value in data set [3] (human, in vivo, 29 days) worked out at 8.1%. Besides, in data set [3] (judged not related to the study drug), the “Subjects reporting serious adverse events” value is “only other serious adverse event”.
